Test results from publication PMC1664607 (PLoS Medicine, 2006).

Assays:
CYP2E1 = molecular target: T1, CYP2E1 (Homo sapiens, UniProt P05181); assay: Chlorzoxazone 6-hydroxylation in human liver microsomes; assay type: in vitro ADME; settings: 100 μM; 100 μM chlorzoxazone
T1 construct: Standard incubation mixtures of 0.5 ml contained microsomal protein (0.1–0.5 mg); from tissue; host or cells: pooled human liver microsomes (ten donors)

CYP2A6 = molecular target: T2, CYP2A6 (Homo sapiens, UniProt P11509); assay: Coumarin 7-hydroxylation in human liver microsomes; assay type: in vitro ADME; settings: 100 μM; 2 μM coumarin
T2 construct: Standard incubation mixtures of 0.5 ml contained microsomal protein (0.1–0.5 mg); from tissue; host or cells: pooled human liver microsomes (ten donors)
T2 sequence (P11509 1-494): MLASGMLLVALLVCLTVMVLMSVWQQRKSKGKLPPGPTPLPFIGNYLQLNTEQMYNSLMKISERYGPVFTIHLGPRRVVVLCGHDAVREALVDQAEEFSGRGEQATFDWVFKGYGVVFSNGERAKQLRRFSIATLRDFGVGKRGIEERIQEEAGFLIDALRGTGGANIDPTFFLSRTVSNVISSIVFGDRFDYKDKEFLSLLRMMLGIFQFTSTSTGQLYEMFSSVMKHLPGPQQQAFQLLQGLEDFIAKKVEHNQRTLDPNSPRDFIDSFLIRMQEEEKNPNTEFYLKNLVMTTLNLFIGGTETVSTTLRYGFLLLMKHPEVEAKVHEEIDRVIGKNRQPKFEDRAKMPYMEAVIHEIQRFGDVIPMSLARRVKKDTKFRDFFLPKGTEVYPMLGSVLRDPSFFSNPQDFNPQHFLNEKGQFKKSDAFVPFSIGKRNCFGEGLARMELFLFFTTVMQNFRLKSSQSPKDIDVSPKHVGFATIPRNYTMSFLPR

T1 sequence (P05181 whole entry): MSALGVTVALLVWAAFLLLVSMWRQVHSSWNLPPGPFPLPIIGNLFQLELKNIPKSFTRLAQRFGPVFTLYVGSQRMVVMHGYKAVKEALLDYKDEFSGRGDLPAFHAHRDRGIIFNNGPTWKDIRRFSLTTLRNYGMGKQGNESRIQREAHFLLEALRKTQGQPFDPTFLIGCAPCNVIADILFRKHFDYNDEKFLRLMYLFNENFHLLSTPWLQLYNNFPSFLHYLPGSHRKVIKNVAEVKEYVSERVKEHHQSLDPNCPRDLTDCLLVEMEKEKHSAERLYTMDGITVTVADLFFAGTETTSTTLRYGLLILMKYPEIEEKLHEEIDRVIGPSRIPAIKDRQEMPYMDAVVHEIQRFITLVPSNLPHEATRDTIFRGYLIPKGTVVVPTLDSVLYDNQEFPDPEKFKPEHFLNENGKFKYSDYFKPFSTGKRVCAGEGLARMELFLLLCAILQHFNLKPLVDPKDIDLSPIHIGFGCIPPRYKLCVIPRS

## CCN(CC)C(=S)S [Diethyldithiocarbamate, diethyldithiocarbamate]
CYP2E1
  Percent of Control: 55.0% of Control
CYP2A6
  Percent of Control: 38.2% of Control
